# Experimental data reported in US10487348B2, “3-alpha-hydroxysteroid dehydrogenase mutants and process for the preparation of ursodeoxycholic acid” (Pharmazell GmbH, priority 2014, dated 2019).
# Numbering of substitutions follows the chain as printed.
# Columns and labels:
# [1] = molecular target: T1, Comamonas testosteroni 3α-HSDH, wild type, N-terminal hexahistidine tag (Comamonas testosteroni, UniProt P80702); assay: Michaelis-Menten kinetics of wild-type 3α-HSDH with N-terminal His tag; format: biochemical; details: Table 14, substrate DHCA, apparent values
# T1 sequence (P80702 1-257): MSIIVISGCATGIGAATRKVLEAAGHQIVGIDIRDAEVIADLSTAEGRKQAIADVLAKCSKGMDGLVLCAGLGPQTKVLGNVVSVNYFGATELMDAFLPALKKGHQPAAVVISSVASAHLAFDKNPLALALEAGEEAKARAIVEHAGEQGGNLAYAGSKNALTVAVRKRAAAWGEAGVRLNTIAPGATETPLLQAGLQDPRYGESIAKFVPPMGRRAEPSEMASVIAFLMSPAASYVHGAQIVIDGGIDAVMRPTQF
# From the text: The His-tag allows for very simple purification of the HSDH protein since this sequence is bound with high specificity by specific chromatographic material (NTA (Ni-nitrilotriacetate)-modified support material, loaded with divalent nickel ions, for example “His Pur Ni-NTA” (Nimagen B. V., Nijmegen, The Netherlands)). To this end, the cell-free crude extract is applied to a dropping column comprising this material, which dropping column has previously been equilibrated with the disruption buffer (3 to 5 column volumes). Weakly binding protein was removed by washing with 3 to 5 column volumes of wash buffer (20 mM imidazole, 50 mM sodium phosphate, 300 mM NaCl, pH 8). The His-tag-3α-HSDH protein was eluted with imidazole-comprising elution buffer (250 mM imidazole, 50 mM sodium phosphate, 300 mM NaCl, pH 8). The process was carried out at room temperature. The imidazole which was present was to be removed by buffer exchange.
# The activity of the 3α-HSDH and of the mutants was determined using a photometric assay, where the decrease in absorbance was measured at 340 nm over a period of 30 seconds.
# The targeted exchange of amino acid radicals was performed analogously to Example 2B.
# Following cultivation and expression, the cells were harvested, and the specific activities of the cell-free crude extracts were determined at substrate concentrations of 10 mM DHCA. […]
# [2] = molecular target: T2, Comamonas testosteroni 3α-HSDH mutant [T188S], N-terminal hexahistidine tag (Comamonas testosteroni, UniProt P80702, T188S); assay: Kinetics of 3α-HSDH [T188S], N-terminal His tag
# T2 sequence (P80702 1-257 T188S): T1 sequence (P80702 1-257) with T188S
# [3] = molecular target: T3, Comamonas testosteroni 3α-HSDH mutant [P185A], N-terminal hexahistidine tag (Comamonas testosteroni, UniProt P80702, P185A); assay: Kinetics of 3α-HSDH [P185A], N-terminal His tag
# T3 sequence (P80702 1-257 P185A): T1 sequence (P80702 1-257) with P185A
# [4] = molecular target: T4, Comamonas testosteroni 3α-HSDH, wild type, C-terminal 9×His tag (SEQ ID NO: 51) (Comamonas testosteroni, UniProt P80702); assay: Michaelis-Menten kinetics of 3α-HSDH with 9×His tag
# T4 sequence (P80702 with tags, fused parts or gaps): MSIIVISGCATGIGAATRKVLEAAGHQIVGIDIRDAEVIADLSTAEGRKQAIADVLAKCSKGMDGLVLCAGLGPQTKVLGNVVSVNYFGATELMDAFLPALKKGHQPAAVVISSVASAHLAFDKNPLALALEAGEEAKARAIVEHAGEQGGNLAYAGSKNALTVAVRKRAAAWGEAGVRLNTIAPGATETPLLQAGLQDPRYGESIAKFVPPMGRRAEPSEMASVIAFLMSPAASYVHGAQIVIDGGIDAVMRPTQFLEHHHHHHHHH
# From the text: The His-tag allows for very simple purification of the HSDH protein since this sequence is bound with high specificity by specific chromatographic material (NTA (Ni-nitrilotriacetate)-modified support material, loaded with divalent nickel ions, for example “His Pur Ni-NTA” (Nimagen B. V., Nijmegen, The Netherlands)). To this end, the cell-free crude extract is applied to a dropping column comprising this material, which dropping column has previously been equilibrated with the disruption buffer (3 to 5 column volumes). Weakly binding protein was removed by washing with 3 to 5 column volumes of wash buffer (20 mM imidazole, 50 mM sodium phosphate, 300 mM NaCl, pH 8). […] The process was carried out at room temperature. The imidazole which was present was to be removed by buffer exchange.
# Following expression (25° C., 0.5 mM, IPTG, 20 hours), the protein was purified, and the expression and the purification were checked by means of an SDS gel. […] The NADH concentration was 0.2 mM. Purified protein was employed in the measurements.
# [5] = molecular target: T5, Comamonas testosteroni 3α-HSDH dual mutant [L68A/T188A], N-terminal hexahistidine tag (Comamonas testosteroni, UniProt P80702, L68A/T188A)
# T5 sequence (P80702 1-257 L68A/T188A): T1 sequence (P80702 1-257) with L68A, T188A
# [6] = molecular target: T6, Comamonas testosteroni 3α-HSDH dual mutant [P185A/T188A], N-terminal hexahistidine tag (Comamonas testosteroni, UniProt P80702, P185A/T188A); assay: Kinetics of 3α-HSDH [P185A/T188A], N-terminal His tag
# T6 sequence (P80702 1-257 P185A/T188A): T1 sequence (P80702 1-257) with P185A, T188A
# [7] = Table 14, substrate DHCA, tag N, apparent values
# [8] = His tag length 9, DHCA 10 μM-10 mM, NADH 0.2 mM, purified
smiles,measurement,setting,value
"C[C@H](CCC(=O)O)[C@H]1CC[C@H]2[C@@H]3C(=O)C[C@@H]4CC(=O)CC[C@]4(C)[C@H]3CC(=O)[C@]12C [DHCA, dehydrocholic acid]",kcat,[1],47.1 s⁻¹
same,vmax,[1],98.7 ± 4.7 U/mg
same,kcat,[2]; [7],158.2 s⁻¹
same,vmax,[2]; [7],332.5 ± 59.9 U/mg
same,remaining activity at 20000 µM,[2]; read-out: residual activity,> 20%
same,kcat,[3]; [7],48.5 s⁻¹
same,vmax,[3]; [7],102.8 ± 5.7 U/mg
same,remaining activity at 10000 µM,[3]; read-out: residual activity,5%
same,KM value better than the variant with 3 histidines,"[4]; DHCA, 9 vs 3 histidines",14 fold
same,kcat,[4]; [8],8.9 ± 0.5 s⁻¹
same,vmax,[4]; [8],19.2 ± 1.1 U/mg
same,kcat,[5]; [7],111.1 s⁻¹
same,vmax,[5]; [7],233.5 ± 12.5 U/mg
same,remaining activity at 1000 µM,[5]; read-out: residual activity,85%
same,remaining activity at 10000 µM,[5]; read-out: residual activity,> 20%
same,kcat,[6]; [7],17.6 s⁻¹
same,vmax,[6]; [7],36.9 ± 2.6 U/mg
same,remaining activity at 10000 µM,[6]; read-out: residual activity,~30%
